Here are results for two compounds from patent US20150335558A1, “NERVE GROWTH INHIBITOR, CUTANEOUS-SENSORY-IRRITATION INHIBITOR, AND MARKER FOR CUTANEOUS-SENSORY-IRRITATION DETECTION” (HOYU CO., LTD., priority 2012, published 2015).

The subject of experiment [1] is ICR mice. Nature of the experiment: Scratch bouts of ICR mice after 10% SDS application (Sample Experiment 1-1). The experiment is classed as in vivo, mouse. The following applies: ICR mice of 10% SDS group at Day 3, TRF 30 mg/kg oral, 30 mins. before observation, 60 mins. count. The procedure: The present Sample Experiment was conducted using ICR mice, and an anionic surfactant, namely, sodium dodecyl sulfate (SDS), was used as a stimulating substance to analyze the scratch bouts of mice. After SDS had been applied, terfenadine (TRF) was administered as an antihistamine to determine its effect on scratch bouts.
Male ICR mice at ages of 7 to 8 weeks, purchased from Japan SLC, were used. The mice were given solid feed under free water supply and subjected to preliminary rearing for 7 days or longer under a constant temperature/constant humidity environment with a temperature of 22±2° C., and a humidity of 55±10% before they were used in the test. The mice for use were used in the test at least 3 days after shearing/depilating the rostral back of each mouse. […]
The scratch bouts of mice were performed in view of the Kuraishi et al. report. That is, a single mouse was put in each chamber of the 4 divided sections in an acrylic box (13×9×35 cm) to be acclimated for at least an hour, and they were video recorded in an environment without any person for at least an hour a day from the day of applying the above 10% SDS aqueous solution (Day 0) to the 4th day after application (Day 4) to record their movement. Then, by watching the video, the number of scratch bouts against the rostral back by the hind leg was counted. […]

The subject of experiment [2] is mast cell deficient mice (WBB6F1-W/W^V) and normal control mice (WBB6F1-+/+). Description: Scratch bouts of mice after 10% sodium laurate application (Sample Experiment 2). It is filed as in vivo, mouse. The following applies: 10% SL aqueous solution 50 μL single application, 2 hrs. after application, both mast cell deficient and normal control mice. On the procedure: Male mast cell deficient mice at ages of 7 to 8 weeks (WBB6F1-W/W^V mouse), purchased from Japan SLC, and normal control mice that are wild mice at ages of 7 to 8 weeks (WBB6F1-+/+mouse) were used. They were given solid feed under free water supply and subjected to preliminary rearing for 7 days or longer under a constant temperature/constant humidity environment with a temperature of 22±2° C., and a humidity of 55±10% before they were used in the test. The mice for use were subjected to the test at least 3 days after shearing/depilating of the rostral back. […] That is, a single mouse was put in each of the 4 divided sections of an acrylic box (13×9×35 cm) to be acclimated for at least 1 hr., and they were video recorded in an environment without any person to record their action. Then, by watching the video, the number of scratch bouts against the rostral back by the hind leg was counted. A series of scratching movements (movements that include scratching the rostal back, where the solution is applied, with the hind leg, then dropping the hind leg to the ground) was counted as 1 count, and the number of times scratching was performed in 60 mins. was counted by visual observation. […]

Experiment [3] relates to histamine and active HDC (53 kDa) in mouse epidermis and dermis. Description: Histamine amount and HDC activation in ICR mouse skin after 10% sodium laurate (Sample Experiment 3). The experiment is classed as in vivo. The following applies: ICR mice. On the procedure:
Male ICR mice at ages of 7 to 8 weeks, purchased from Japan SLC, were used. They were given solid feed under free water supply and subjected to preliminary rearing for 7 days or longer under a constant temperature/constant humidity environment with a temperature of 22±2° C., and a humidity of 55±10% before they were used in the test. The mice for use were subjected to the test at least 3 days after shearing/depilating of the rostral back. A 10% aqueous solution obtained by dissolving SL in distilled water was applied as a stimulating substance against the skin at 50 μL to the sheared/depilated rostral back of the mice mentioned above. Distilled water was applied to the solvent control group (Vehicle). Note concerning FIG. 5 and FIG. 6 to be described later that the mice that were not treated with the above SL aqueous solution or distilled water are called “NT (not treated).” The amount of histamine in skin was measured before applying a surfactant, 2 hrs. after application, and 24 hrs. after application (the time of application was set to 0 hr.). Skins were collected while the mice were under anesthesia after perfusion with a phosphate buffer solution (PBS) using the cardiac blood circulation system (punched out with a biopsy punch in a circular shape of a diameter of 18 mm). The amounts of histamine in the collected skins were measured. After the collected skins were immersed in PBS at 60° C. for 30 secs., they were separated into the epidermis and the dermis. Then, the amounts of histamine in the epidermis and the dermis were measured using the measurement kit. To measure the amount of histamine, tissues of both the epidermis and the dermis were pulverized to create tissue suspensions, which were subjected to centrifugation, then supernatants were collected to measure the amounts of histamine in the supernatants.

Where [4] appears, read: 2 hrs. after 10% SL application.
The mark [5] stands for this setting: 24 hrs. after 10% SL application.

Each structure is given as a SMILES string.

On to `CC(C)(C)c1ccc(C(O)CCCN2CCC(C(O)(c3ccccc3)c3ccccc3)CC2)cc1` (stereo not shown) [TRF, terfenadine], for which the “scratch bouts of SDS-treated mice after TRF, After vs Before” value in experiment [1] is given as “effectively suppressed”.
For `CCCCCCCCCCCC(=O)[O-].[Na+]` [SL, sodium laurate], in experiment [2], the “scratch bouts of mice (number in 60 mins.) after stimulating substance” value is “clearly increased”. In addition, the “active HDC (53 kDa) in mouse epidermis” value is reported as “increased significantly” in experiment [3] (setting [4]) and “returned to the pre-application level” in experiment [3] (setting [5]). For the same compound, the “histamine level in the epidermis” value in experiment [3] (setting [4]) is listed as “increased”; in experiment [3] (setting [5]), “returned to the pre-application level”. Further, in experiment [3] (before, 2 hrs. and 24 hrs. after 10% SL application), the “histamine level of the dermis” value is “no substantial change was observed”.
